{"source": "patent US20250059231A1", "about": "“Protease inhibitors” (priority 2021, published 2025)", "key": {"[1]": {"system": "Dengue virus 2 (DENV2, ATCC VR-1584)", "test": "DENV2 infection in AG129 mice: clinical signs, body and spleen weights", "type": "in vivo", "details": "100 mg/kg, SC; n = 9", "experimental": "(§1) The purpose of this study was to determine the efficacy of the compounds on Dengue virus 2 (DENV2, ATCC® VR-1584™) infection in AG129 mice.\n(§2) Six groups of AG129 mice, 6-8 weeks old, with 9 mice per group were used to test compounds according to table 3.1.1. Animal room environment was monitored for temperature and relative humidity twice per day. The temperature range was 22° C.±3° C. and humidity range was 30-70%. The animals were provided with 12 hours light and 12 hours darkness. Feed and drinking water was provided ad libitum. Compounds 43 and 113 were tested.\nC6/36 (ATCC(CRL-1660) cell lines were grown in RPMI 1640 medium (Gibco/HiMedia) plus 5% fetal bovine serum at 28° C. Dengue virus type 2 (ATCC®VR-1584™) New Guinea C(NGC, DENV2) was passaged in BHK-21 cell cultures to make sufficient stocks for assay. Virus titer was determined by TCID50 method using BHK-21 cells.\n(§3) Twenty-four hours post treatment (Day 0), animals were injected intraperitoneally (IP) with 0.2 ml of virus suspension (˜5×10^7/animal).\nThe vehicle for tested compounds was 5% DMSO+95% (20%) hydroxypropylcyclodextrin. […] Formulations were prepared daily immediately before dosing.\n(§4) Administration of compounds and vehicle to animals started twenty four hours before infection (Day −1). Animals were treated daily (From Day-1 to day 4) as per the experimental design shown below in table 3.1.5. Animals were monitored for general clinical signs, morbidity and mortality. Body weights were measured daily.\nAnimals were sacrificed on day 5 post infection with Isoflurane followed by an overdose of CO2. Spleens were excised, measured and weighed.\n(§5) The Mean±SD Log10PFU/ml, relative Mean±SD spleen weight, Mean±SD biomarker concentrations were estimated in each group. Significant differences between group means and control were analyzed by one-way ANOVA, followed by a Dunnett's multiple comparison test, using GraphPad Prism 5 at 95% confidence levels. A p value of <0.05 was considered as significant."}, "[2]": {"system": "Dengue virus 2 (DENV2, ATCC VR-1584)", "test": "DENV2 infection in AG129 mice: viral load in plasma (plaque assay)", "type": "in vivo", "details": "100 mg/kg, SC", "experimental": "as §1, §2, §3, §4\nBlood was collected on days-1, 0, 1, 2, 3, 4 to 5.\nBHK-21 cells were cultured to approximately 80% confluency in 24-well plates (NUNC, NY, USA). Plasma samples were 10-fold serially diluted in RPMI 1640 (GIBCO). BHK-21 monolayers were infected with 100 μl of each virus dilution. After incubation at 37° C. and 5% CO2 atmosphere for one hour with rocking at 15 min intervals, the medium was decanted and 1 ml of 1% (w/v)carboxymethyl cellulose in RPMI supplemented with 2% FCS was added to each well. After four days incubation at 37° C. in 5% CO2, the cells were fixed with 4% paraformaldehyde and stained for 30 min with […] of 1% crystal violet dissolved in 37% formaldehyde. After thorough rinsing with water, plates were dried and the plaques were scored visually.\nas §5"}}, "data": [{"compound": "NC(=O)c1ncn([C@@H]2O[C@H](CO)[C@@H](O)[C@H]2O)n1", "note": "[Ribavirin, ribavirin, reference compound]", "values": [{"measurement": "Body weights of mice at the end of the study (Mean ± SD)", "setting": "[1]", "result": "20.11 ± 1.05", "unit": "g"}, {"measurement": "Mean + SD Log10PFU/ml Plasma", "setting": "[2]; Day 2", "result": "3.34 ± 0.29", "unit": "Log10PFU/ml"}, {"measurement": "Mean + SD Log10PFU/ml Plasma", "setting": "[2]; Day 5", "result": "3.50 ± 0.13", "unit": "Log10PFU/ml"}]}]}
